Test results: patent US20220315567A1 (priority 2016, published 2022)
Counter-ions that a name gives are not always drawn. Like-named read-outs stand apart in the source and are kept apart here.

Legend:
[1] = biological target: T1, human OPRM1 (μ, MOR) (Homo sapiens, UniProt P35372); assay: cell-based; details: for Emax: OPRM1, read-out: cAMP Emax; for EC50: PathHunter human OPRM1 Arrestin CHO-K1 cell line, read-out: cAMP EC50
T1 construct: host or cells: CHO-K1
Procedure: G-protein signaling was measured via second messenger cAMP modulation. Detection of cAMP modulation was accomplished in the PathHunter human OPRM1 (μ, MOR) Arrestin CHO-K1 cell line using the Dynamic2 cAMP Kit from Cisbio.

[2] = biological target: T1, human OPRM1 (μ, MOR); assay: cell-based; details: for Emax: OPRM1, read-out: β-Arrestin Emax; for EC50: PathHunter human OPRM1 Arrestin CHO-K1 cell line, read-out: β-Arrestin EC50
Procedure: The Discoverx PathHunter® β-Arrestin assay is used to measure β-arrestin-2 activity. The technology is based on Enzyme Fragment Complementation (EFC) with β-galactosidase (β-Gal) as the reporter. […] EA is fused to Q-arrestin-2, and ED is fused to the C-terminus of the GPCR of interest. When a ligand binds and the GPCR is activated, Q-arrestin-2 is recruited to the receptor resulting in an ED/EA complementation, restoring f-Gal activity, which is measured using chemiluminescence. For this assay, the PathHunter human OPRM1 (μ, MOR) Arrestin CHO-K1 cell line was used.

[3] = biological target: T1, human OPRM1 (μ, MOR); assay type: cell-based; details: for ΔRA of compound: relative activity from EC50 and Emax of β-arrestin vs cAMP, lower RA = more G-protein biased
Procedure: In certain embodiments, the ability of a compound to activate G-protein or β-arrestin is not an on/off switch for a given pathway, but rather a continuous function. To capture this, each compound is measured for activity in cell assays that are linked to β-arrestin recruitment and G-protein signaling. By comparing the activity between these two measures (accounting for both EC50 and maximal response reached, Emax) a relative activity (RA) value is determined.
In the case of MOR it is desirable to have high activation of the G-protein pathway while reducing activation of β-arrestin. In the case of the formula above, this means a lower RA.

T1 sequence (P35372 whole entry): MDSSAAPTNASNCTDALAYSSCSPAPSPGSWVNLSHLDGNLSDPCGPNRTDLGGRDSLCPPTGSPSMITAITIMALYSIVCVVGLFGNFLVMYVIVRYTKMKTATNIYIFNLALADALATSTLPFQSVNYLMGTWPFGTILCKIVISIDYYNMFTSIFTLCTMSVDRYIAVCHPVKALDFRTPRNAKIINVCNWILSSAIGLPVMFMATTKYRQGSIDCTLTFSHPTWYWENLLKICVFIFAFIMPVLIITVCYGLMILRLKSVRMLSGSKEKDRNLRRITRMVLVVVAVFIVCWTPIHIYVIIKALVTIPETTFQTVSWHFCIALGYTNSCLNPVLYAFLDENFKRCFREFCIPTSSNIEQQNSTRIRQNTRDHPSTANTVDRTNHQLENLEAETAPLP

SMILES	Emax [1] [%]	EC50 [1] [nM]	Emax [2] [%]	EC50 [2] [nM]	Bias Factor (ΔRA of compound relative to ΔRA of DAMGO) × 10 ([3]; hydrochloride)	ΔRA of compound ([3]; hydrochloride)	Bias Factor (ΔRA of compound relative to ΔRA of DAMGO) × 10 [3]	ΔRA of compound [3]	cAMP Emax [1] [%]	β-Arrestin Emax [2] [%]
CN(C)C(CNC(=O)N1Cc2ccc(Cl)cc2C1)c1ccsc1 (stereo not shown) [Compound 4a, 5-Chloro-N-(2-(dimethylamino)-2-(thiophen-3-yl)ethyl)isoindoline-2-carboxamide hydrochloride]	20.7	> 100000	< 1	> 100000	–	–	–	–	–	–
CN(C)C(CNC(=O)N1Cc2ccccc2C1)c1ccccc1 (stereo not shown) [Compound 18a, N-(2-(Dimethylamino)-2-phenylethyl)isoindoline-2-carboxamide hydrochloride]	100	23	6.91	730	−11.84	−2.66	–	–	–	–
CNC(CNC(=O)N1Cc2cccc(F)c2C1)c1ccsc1 (stereo not shown) [Compound 81]	–	14	–	> 100000	–	–	<−14.83	<−2.96	91.6	8.2
CNC(CNC(=O)N1Cc2ccccc2C1)c1ccccc1 (single isomer, unassigned; (-)) [Compound 38-ent-A, (−)-N-(2-(Methylamino)-2-phenylethyl)isoindoline-2-carboxamide]	81.6	379	3.7	> 100000	–	–	<−14.83	<−2.96	–	–
CN(C)[C@@H](CCNC(=O)N1CC[C@@H](c2ccccc2)C1)c1ccsc1 [Compound 77]	33.2	1100	< 1	> 100000	–	–	<−14.83	<−2.96	–	–
CN(C)C(CNC(=O)NC1CCCc2ccccc21)c1ccsc1 (stereo not shown) [Compound 11a, 1-(2-(Dimethylamino)-2-(thiophen-3-yl)ethyl)-3-(1,2,3,4-tetrahydronaphthalen-1-yl)urea hydrochloride]	94.3	< 1	112	21	–	–	2.32	−1.24	–	–
COc1ccc(C(CNC(=O)N2CC[C@H](c3ccccc3)C2)N(C)C)cc1 (stereo partly shown) [Compound 43]	54.2	1720	< 1	> 100000	–	–	<−14.83	<−2.96	–	–
CN(C)C(CNC(=O)N1CCCc2ccc(F)cc21)c1ccsc1 (stereo not shown) [Compound 8a, N-(2-(dimethylamino)-2-(thiophen-3-yl)ethyl)-7-fluoro-3,4-dihydroquinoline-1(2H)-carboxamide]	86.9	730	6.18	> 100000	–	–	<−14.83	<−2.96	–	–
CN(C)C(CNC(=O)N[C@@H]1CCc2ccc(O)cc2C1)c1ccsc1 (stereo partly shown) [Compound 50]	48.3	36	< 1	> 100000	–	–	<−14.83	<−2.96	–	–
CN(C)C(CNC(=O)NC1CCCc2c(O)cccc21)c1ccsc1 (stereo not shown) [Compound 59]	108	6	61	160	–	–	−1.95	−1.67	–	–
CN(C)C(CNC(=O)N[C@H]1CCc2ccccc2C1)c1ccsc1 (stereo partly shown) [Compound 52]	–	227	–	> 100000	–	–	<−14.83	<−2.96	12.2	<1
CN(C)C(CNC(=O)N1CC[C@@H](c2ccccc2)C1)c1ccsc1 (stereo partly shown) [Compound 41]	9.6	> 100000	< 1	> 100000	–	–	–	–	–	–
Cc1ccc2c(c1)CN(C(=O)NCC(c1ccsc1)N(C)C)C2 (stereo not shown) [Compound 12a, N-(2-(Dimethylamino)-2-(thiophen-3-yl)ethyl)-5-methylisoindoline-2-carboxamide hydrochloride]	6.33	> 100000	2.16	> 100000	–	–	–	–	–	–
CN(C)C(CNC(=O)N1Cc2cc(F)c(F)cc2C1)c1ccsc1 (stereo not shown) [Compound 6a, N-(2-(dimethylamino)-2-(thiophen-3-yl)ethyl)-5,6-difluoroisoindoline-2-carboxamide hydrochloride]	21.9	9	< 1	> 100000	–	–	<−14.83	<−2.96	–	–
C[C@@H](NC(=O)[C@@H](N)Cc1ccc(O)cc1)C(=O)NCC(=O)N(C)[C@@H](Cc1ccccc1)C(=O)NCCO [DAMGO, H-Tyr-D-Ala-Gly-NMe-Phe-Gly-OH, reference compound]	108	–	98.3	–	–	–	–	–	–	–
COc1ccc(C(CNC(=O)N2CC[C@@H](c3ccccc3)C2)N(C)C)cc1 (stereo partly shown) [Compound 42]	21.9	7430	< 1	> 100000	–	–	<−14.83	<−2.96	–	–
CN(C)C(CNC(=O)N[C@H]1CCc2ccc(O)cc2C1)c1ccsc1 (stereo partly shown) [Compound 60]	27.5	676	< 1	> 100000	–	–	<−14.83	<−2.96	–	–
CNC(CNC(=O)N1Cc2ccccc2C1)c1ccccc1 (single isomer, unassigned) [Compound 38-ent-B, (+)—N-(2-(Methylamino)-2-phenylethyl)isoindoline-2-carboxamide]	–	840	–	> 100000	–	–	<−14.83	<−2.96	97.6	5.9
CN(C)C(CNC(=O)N(C)C1CCCc2ccccc21)c1ccsc1 (stereo not shown) [Compound 13a, 3-(2-(Dimethylamino)-2-(thiophen-3-yl)ethyl)-1-methyl-1-(1,2,3,4-tetrahydronaphthalen-1-yl)urea hydrochloride]	95.3	68	11.3	1680	–	–	−8.39	−2.3	–	–
CN(C)C(CNC(=O)N1CCCc2ccccc21)c1ccccc1 (stereo not shown) [Compound 69a]	110	563	8	8560	–	–	−8.38	−2.32	–	–
CN(C)C(CNC(=O)N[C@@H]1CCc2ccccc2C1)c1ccsc1 (stereo partly shown) [Compound 48]	–	–	–	–	–	–	<−14.83	<−2.96	–	–
CN(C)C(CNC(=O)N[C@@H]1CCc2ccccc2C1)c1ccsc1 (stereo partly shown) [Compound 47]	–	–	–	–	–	–	<−14.83	<−2.96	–	–
COc1ccc2c(c1)CN(C(=O)NCC(c1ccsc1)N(C)C)C2 (stereo not shown) [Compound 5a, N-(2-(Dimethylamino)-2-(thiophen-3-yl)ethyl)-5-methoxyisoindoline-2-carboxamide hydrochloride]	5	> 100000	< 1	> 100000	–	–	–	–	–	–
